Experimental data from patent US20260151414A1, “COMPOSITIONS AND THERAPEUTIC METHODS FOR TREATING CHRONIC SEQUALAE FOLLOWING VIRAL INFECTIONS” (priority 2023, published 2026).

Assays:
Covid-19 [1] = conditions: cited from earlier work
PASC (Long Covid) = experiment: Clinical example: inventor's self-treatment of Long Covid (PASC) symptoms; assay type: in vivo, human; conditions: for relief of constant headache: person, symptoms returning from mid-December 2020 after Covid, self-medication
ACE2 receptor = ACE2 receptor (Homo sapiens, UniProt Q9BYF1); conditions: active site of ACE2 receptor; cited from earlier work
Covid-19 [2] = conditions: cited from earlier work; remark: listed apart in the source

Sequence of ACE2 receptor (Q9BYF1 18-805): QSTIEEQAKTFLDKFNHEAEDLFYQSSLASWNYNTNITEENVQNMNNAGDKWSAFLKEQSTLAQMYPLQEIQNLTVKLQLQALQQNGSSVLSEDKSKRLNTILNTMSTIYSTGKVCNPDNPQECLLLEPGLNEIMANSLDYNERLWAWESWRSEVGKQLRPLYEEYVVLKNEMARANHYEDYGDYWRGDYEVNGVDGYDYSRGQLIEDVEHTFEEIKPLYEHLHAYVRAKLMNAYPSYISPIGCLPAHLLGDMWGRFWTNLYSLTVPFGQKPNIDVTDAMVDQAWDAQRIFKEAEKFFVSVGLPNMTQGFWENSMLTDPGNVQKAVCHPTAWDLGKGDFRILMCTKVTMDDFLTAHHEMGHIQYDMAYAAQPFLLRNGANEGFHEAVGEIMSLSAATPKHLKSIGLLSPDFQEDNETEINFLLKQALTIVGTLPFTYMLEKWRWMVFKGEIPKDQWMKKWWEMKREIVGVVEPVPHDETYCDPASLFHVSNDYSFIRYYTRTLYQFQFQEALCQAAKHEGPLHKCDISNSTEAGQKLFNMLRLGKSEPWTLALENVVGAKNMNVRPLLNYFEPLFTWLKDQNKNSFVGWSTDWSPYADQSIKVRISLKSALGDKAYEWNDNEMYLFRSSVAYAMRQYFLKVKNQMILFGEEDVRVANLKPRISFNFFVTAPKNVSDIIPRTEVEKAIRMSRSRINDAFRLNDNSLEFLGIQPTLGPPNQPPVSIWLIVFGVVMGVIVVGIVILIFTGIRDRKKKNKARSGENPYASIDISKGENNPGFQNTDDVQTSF

## C=C1CC[C@@H]2[C@](C)(CO)[C@H](O)CC[C@@]2(C)[C@@H]1C/C=C1/C(=O)OC[C@H]1O [andrographolide]
Covid-19 [1]
  inhibitory effect against Covid-19: potent inhibitory effect

## COc1ccc2cc([C@H](C)C(=O)O)ccc2c1 [naproxen]
PASC (Long Covid)
  relief of constant headache: would not go away

## CC(C)Cc1ccc(C(C)C(=O)O)cc1 (stereo not shown) [ibuprofen]
PASC (Long Covid)
  relief of constant headache: would not go away

## O=C(O)C=Cc1ccccc1 [Cinnamic Acid]
ACE2 receptor
  blocking of Covid-19 via ACE2 receptor: block Covid-19 via the active site of ACE2 receptor

## O=c1c(O)c(-c2ccc(O)c(O)c2)oc2cc(O)cc(O)c12 [Quercetin]
PASC (Long Covid); Black Seed Oil and Quercetin (with Zinc) used together, within a few days of using them
  energy and headaches: an increase in energy and I was having fewer headaches

## CC(=O)Oc1ccccc1C(=O)O [aspirin]
PASC (Long Covid)
  relief of constant headache: would not go away

## O=C(O)c1ccccc1 [Benzioc Acid]
Covid-19 [2]
  antiviral properties for Covid-19: strong antiviral properties
